Results published in article PMC3753236, “Glucocorticosteroids in Nano-Sterically Stabilized Liposomes Are Efficacious for Elimination of the Acute Symptoms of Experimental Cerebral Malaria” (PLoS ONE, 2013).
Structures can show the parent of a compound that is named as a salt. Where two headings read alike, the source gives them in different places.

How the values were obtained:
[1] = cited from earlier work
ECM = system: ECM; set-up: method as in Clemmer et al. [28]; details: after the appearance of clinical signs of neuropathology; ref Clemmer et al. [28]; cited from earlier work
[2] = system: Plasmodium berghei ANKA (PbAus); experiment: Late-stage treatment of ECM followed by artemisone, PbAus-infected C57Bl/6 mice
Procedure: (§1) Plasmodium berghei ANKA (PbA; PbA MRA-311, CDC, Atlanta, GA, USA) was maintained in vivo by serial transfer of parasitized erythrocytes (PE) from infected to naïve mice. Experiments were also performed using a second strain of PbA, similarly maintained, and designated PbAus in the text (courtesy of Prof. G. Grau, University of Sydney, Australia).
(§2) Parasitemia was monitored by thin blood smears prepared from tail blood. These were stained with a 25% Giemsa solution, examined under a light microscope, and parasitemia determined as the percent of infected red blood cells per 10,000 erythrocytes. Disease severity was determined according to scoring of neurological symptoms and changes in weight and temperature, as previously described […] Parasitemias above 20% and the absence of neurological symptoms indicated severe anemic malaria.
(§3) For early ECM treatment, injections were given on days 3, 5, 7, and 9 p.i; for late treatment, treatment was given every other day, starting on day 5 p.i. for a total of at least two injections. Infected, non-treated control mice were injected with 5% dextrose or empty nSSL. Clinical signs and parasitemias were monitored and disease severity scored as described […] At each time-point, at least 3 mice from each group were chosen at random, deeply anesthetized, and brains were removed following intracardial perfusion (using saline, if organs were destined for real-time (rt)PCR analysis, or saline/formalin, if organs were destined for histopathological analysis). Organs destined for rtPCR analysis were snap-frozen in liquid nitrogen and stored at −80°C until use. Organs destined for immunohistology were immediately immersed in cryoprotectant solution (see below).

[3] = system: Plasmodium berghei ANKA (PbAus); experiment: Early treatment of ECM, PbAus-inoculated C57Bl/6 mice (with sequential artemisone)
Procedure: as §1, §2, §3

[4] = system: non-chloroquine resistant P. falciparum; experiment: P. falciparum culture, 3H-hypoxanthine incorporation; type: cell-based, Plasmodium falciparum; details: Plasmodium falciparum
Procedure: The parasite was grown in a human red blood cell culture (RPMI 1640, 7.5% bicarbonate, 50 µM hypoxanthine, 50 µg/ml gentamycin, and 7.5% human plasma) at 1% hematocrit and 2% parasitemia. Cultures containing predominantly ring forms were used; synchronization of the culture was performed if trophozoites represented more than 1–2% of the various developmental stages. Briefly, the culture was centrifuged and the supernatant replaced by 5% (isotonic) sorbitol. After 5 minutes at 37°C the culture was centrifuged again and the supernatant replaced by culture medium to obtain a final 1% hematocrit.
Drug testing was performed in 96-well microtiter plates incubated at 37°C in a 5% O2, 5% CO2, and 90% N2 gas mixture for 72 hours. After 48 hours, 1 µCi ^3H-hypoxanthine was added to each well and the plates were read the next day using a scintillation counter.

[5] = system: Plasmodium berghei ANKA (PbA); experiment: Early treatment of experimental cerebral malaria (ECM), ICR mice infected with PbA
Procedure: as §1, §2
as §3, with “described […] Surviving mice were treated with 2×10 mg/kg/d artemisone by intraperitoneal injection in order to achieve cure; mice were monitored for four weeks post-artemisone treatment in order to allow detection of possible late recrudescence.” for “described”

[6] = 72 h culture, 3H-hypoxanthine, read-out: IC50

In the case of `C[C@H]1C[C@H]2[C@@H]3CCC4=CC(=O)C=C[C@]4(C)[C@@]3(F)[C@@H](O)C[C@]2(C)[C@@]1(O)C(=O)CO` [β-methasone], the “Potency relative to hydrocortisone” value ([1]; ref [15]) is given as 25–30 fold.

In the case of `CO[C@H]1O[C@@H]2O[C@@]3(C)CC[C@H]4[C@H](C)CC[C@@H]([C@H]1C)[C@@]24OO3` [artemether], the “Success rate of ECM rescue therapy” value (ECM) is listed as 43–46%.

For `C[C@H]1[C@H](N2CCS(=O)(=O)CC2)O[C@@H]2O[C@@]3(C)CC[C@H]4[C@H](C)CC[C@@H]1[C@@]24OO3` [Artemisone, reference compound], the “Outcome of artemisone after nSSL-BMS started day 5 p.i.” value ([2]; 2×20 mg/kg/d artemisone on days 11–15 p.i., monitored three weeks) was “complete cure”, the “Outcome of artemisone after nSSL-BMS started day 7 p.i.” value ([2]; all remaining mice died of severe anemic malaria) was “ineffective” and the “Outcome of artemisone after nSSL-BMS started day 6 p.i.” value ([2]; subsequent artemisone administration) was “cure in all mice”. For the same compound, the “Outcome of artemisone treatment following nSSL-BMS” value ([3]; 2×20 mg/kg artemisone i.p. days 11–15 p.i. after early 10 mg/kg nSSL-BMS, monitored four weeks for recrudescence) was “complete cure”, the “Time to zero parasitemia after the first injection (majority of cases)” value ([3]; 2×20 mg/kg artemisone i.p. days 11–15 p.i. following early 10 mg/kg nSSL-BMS) was at most 24 h and the “Mice that relapsed and died of ECM (of the total 17 administered artemisone)” value ([3]; 2×20 mg/kg/d artemisone days 11–15 p.i. after 10 mg/kg free or nSSL-BMS) was “One”. For the same compound, the “Outcome of artemisone monotherapy” value ([3]; beginning on day 11 p.i.) was “ineffective” and the IC50 [4, 6] was 0.4 nM.

In the case of `CCN(CC)CCCC(C)Nc1ccnc2cc(Cl)ccc12` (stereo not shown) [Chloroquine, chloroquine], the IC50 [4] is reported as 40 nM.

Compound `C[C@H]1[C@@H](O)O[C@@H]2O[C@@]3(C)CC[C@H]4[C@H](C)CC[C@@H]1[C@@]24OO3` [Dihydroartemisinin, dihydroartemisinin] has an IC50 [4, 6] of 0.1 nM.

`C=C[C@H]1C[N@@]2CC[C@H]1C[C@H]2[C@H](O)c1ccnc2ccc(OC)cc12` [Quinine, quinine] gave an IC50 [4, 6] of 380 nM.

In the case of `C[C@H]1[C@H](OC(=O)CCC(=O)O)O[C@@H]2O[C@@]3(C)CC[C@H]4[C@H](C)CC[C@@H]1[C@@]24OO3` [artesunate], the “Success rate of ECM rescue therapy” value (ECM) is listed as 43–46%.

In the case of `C[C@H]1C[C@@H]2[C@H]([C@@H](O)C[C@@]3(C)[C@H]2CC[C@]3(O)C(=O)COC(=O)CCC(=O)O)[C@@]2(C)C=CC(=O)C=C12` [MPS, methylprednisolone hemisuccinate sodium salt], the “Survival rate on day 11” value ([5]; 10 mg/kg/d on days 3, 5, 7, 9 p.i.) is listed as 33%, the “Toxicity in ECM mice” value ([5]; 25 mg/kg/d, preliminary experiments) is listed as “mild toxicity” and the “Potency relative to hydrocortisone” value ([1]; ref [14]) is listed as about 5 times. The IC50 [4, 6] was 14000 nM.

With `C[C@@H]1CC[C@H]2[C@@H](C)C(=O)O[C@@H]3O[C@@]4(C)CC[C@@H]1[C@]32OO4` [Artemisinin] the IC50 [4, 6] was 0.13 nM.
